# “Also recorded” adds a separate entry of the source.
# What was measured:
# [1] = test system: muscle-derived stromal cells (MDSC); experiment: Bone nodule formation by MDSC (alizarin red staining); assay type: cell-based, human
# Excerpt: (§1) FIG. 26 TNF-α and IL-6 promote osteogenic differentiation of MDSC A-D: ALP quantification assays after culture of 1×10^4 MDSC for 7 days in a 96-well plate in triplicate with: A: fracture supernatant, ±antibody neutralization of BMPs 2/4 7 and to TGF-β. The immunoglobulin isotype controls used included IgG^1 for AbBMP-2/4 and AbTGF-β, and IgG^2B for Ab-BMP-7. B: human serum containing culture medium with the addition of recombinant human BMPs and TGF-β. C: fracture supernatant±antibody neutralization of TNF-α, IL-6 and IL-1β. The IgG^1 immunoglobulin was used as the antibody isotype control. D: human serum-containing culture medium with the addition of recombinant human TNF-α, IL-6 and IL-1β. E: Alizarin red staining for bone nodule formation after culture of 1×10^4 MDSC in human serum-containing media. Recombinant human cytokine at the optimal dose indicated by D, was added for the first 3 days ONLY, and the cells were subsequently cultured in media for 32 days. A representative image from a single well is shown. All experiments were performed 3 times, in triplicate (n=3) using MDSC from 3 donors. Values for A-D represent a mean from 3 experiments ±SEM, using supernatant from 3 donors in A and C. *: P<0.05; **: P<0.01; ***: P<0.001; 1-way ANOVA with Bonferroni's multiple comparison test in A and C and with Dunnett's multiple comparison test against the media only control in B and D.
# 1×10^4 MDSC were added to wells of a 24-well plate in triplicate. The cells were cultured for 35-40 days in osteogenic media (DMEM with 10% fetal calf serum and 1% penicillin/streptomycin also containing 100 nM dexamethasone (SIGMA), 1 mM β-glycerol phosphate and […] ascorbic acid), supernatant or media containing recombinant cytokines (with one media change per week) the cells were fixed with 2 ml 10% neutral buffered formalin at room temperature for 15 min. The plate was then washed twice with excess PBS. 1 ml filtered 40 mM alizarin red solution (pH 4.1) was added to each well and agitated at room temperature for 30 minutes. The excess dye was then aspirated and the plate washed four times in distilled water with gentle agitation. Finally, the plates were turned upside-down on paper to dry. Bone nodules appeared red under light microscopy. Images were taken at 20 times magnification and performed as above.
# [2] = test system: muscle-derived stromal cells (MDSC); experiment: ALP quantification assay, osteogenic differentiation of cultured MDSC; assay type: cell-based, human
# Excerpt: as §1, with “The” for “FIG. 26 TNF-α and IL-6 promote osteogenic differentiation of MDSC A-D: ALP quantification assays after culture of 1×10^4 MDSC for 7 days in a 96-well plate in triplicate with: A: fracture supernatant, ±antibody neutralization of BMPs 2/4 7 and to TGF-β. The”, “Recombinant human cytokine at the optimal dose indicated by D, was added for the first 3 days ONLY, and the cells were subsequently cultured in media for 32 days.” left out
# To investigate the fracture-derived stimulus for osteogenic differentiation of MDSC, fracture supernatants were prepared using human tibial fracture fragments obtained within 24 hours of injury (ethics approval number—COREC No: 07/Q0411/30). […] Bone fragments were obtained from either fractured tibial fragments or non-traumatically cut bone slices. These were then incubated in serum free DMEM+Glutamax media for 24 hours. The supernatant was then filter sterilised to remove any contaminants and cellular debris. MDSC were then cultured in the presence of either control media, osteogenic media, fracture supernatant or non-fracture supernatant for 7 days before lysis and quantification of ALP levels.
# 1×10^4 human MDSC were added to wells of a 96 well plate in triplicate. At 24 hrs the media was pipetted off and replaced by 200 μl test media. The media was changed every 3 days. At 7 days the media was removed and the cells lysed in 20 μl NP-40 lysis buffer. An ALP quantification assay (WAKO pure chemical Ltd.) was used. Calibration solution from the assay was serially diluted to make concentrations of 0.25, 0.125 and 0.0625 mmol/L. To empty wells, 20 μl of each calibration solution was added. To another, dH2O was added. 100 μl reagent (1 taBIet per 5 ml buffer solution) was added to each well, and incubated at 37° C. for 20 minutes. 80 μl stop solution was then added to each well and the plate was read using an ELISA spectrometer at 405 nm wavelength. The concentration of ALP in the test wells was extrapolated from the standard curve.
# [3] = test system: fractured ribs; conditions: daily intraperitoneal 400 μg/kg body weight per day after fracture, rats; cited from earlier work
# [4] = test system: osteoclast; conditions: TNF-α at 1 ng/ml; cited from earlier work
substance,measurement,setting,value
TNFα,bone nodule formation by MDSC,"[1]; Example 1, cytokine at 1 ng/ml, 5 weeks (FIG. 13)",promoted; also recorded: pronounced bone nodule formation
same,bone nodule formation by MDSC,"[1]; Example 3, recombinant cytokine at optimal dose for first 3 days, human serum-containing media (FIG. 26E)",stimulated vigorous nodule formation
same,ALP expression (osteogenic differentiation) in cultured MDSC,"[2]; Example 1, exogenous recombinant human factor added to MDSC culture (FIG. 8, 10, 12)",dose-dependent stimulation of ALP expression
same,ALP expression by MDSC,"[2]; Example 3, 7 days in human serum-containing media with recombinant human factor (FIG. 26B, 26D)",stimulated ALP expression
same,concentration at which ALP expression by MDSC is stimulated,"[2]; Example 3, 7 days, human serum-containing media (FIG. 26D)",up to 1 ng/ml
same,ALP expression by MDSC relative to control,"[2]; Example 3, TNF-α at 100 ng/ml, 7 days (FIG. 26D)",non-significantly less than the control
same,fracture healing,[3],significantly inhibited
same,decrease of osteoclast number,[4],> 90%

# Reference: patent US20120213826A1, “Use of Pro-Inflammatory Compounds for Promoting Bone Formation” (Imperial Innovations Limited, priority 2009, published 2012)
